From US20260285850A1, “SUBSTITUTED OXAZOLIDINONES AND IMIDAZOLINONES AS HERBICIDES” (FMC CORPORATION, priority 2023, published 2026)

Key:
Assay type in all cases: in vivo
[1] = tested on: barnyardgrass (Echinochloa crusgalli); assay: Test B flooded paddy test, visual plant response rating 0-100; conditions: 250 g ai/ha, Flood, applied to paddy water, evaluated after 13 days
How it was run: (§1)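 Paddy-water application: test compounds went directly into water flooded 3 cm above the soil surface, with plants at 2 leaves. After a 13-day greenhouse period, responses were judged by eye relative to controls; a dash marks an untested entry.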

[2] = tested on: ducksalad (Heteranthera limosa); assay: as above; conditions: 250 g ai/ha, Flood, applied to paddy water, evaluated after 13 days
How it was run: as §1

[3] = tested on: sedge, umbrella (small-flower umbrella sedge, Cyperus difformis); assay: as above; conditions: 250 g ai/ha, Flood, applied to paddy water, evaluated after 13 days
How it was run: as §1

rice (Oryza sativa) = assay: as above; conditions: 250 g ai/ha, Flood, applied to paddy water, evaluated after 13 days
How it was run: as §1

[4] = tested on: ryegrass, Italian (italian ryegrass, Lolium multiflorum); assay: Test A postemergence application, visual injury rating 0-100; conditions: Postemergence
How it was run: (§2)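 Grow plants in loam soil blended with sand. Apply formulated compound (non-phytotoxic solvent, surfactant) as a directed soil spray before emergence, or to plants at the one- to two-leaf stage after emergence. Hold in greenhouse 10 days, then rate injury visually versus untreated controls on a 0-100 scale.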

corn (Zea mays) [5] = assay: as above; conditions: Postemergence
How it was run: as §2

[6] = tested on: barnyardgrass (Echinochloa crus-galli); assay: as above; conditions: Postemergence
How it was run: as §2

[7] = tested on: galium (catchweed bedstraw, Galium aparine); assay: as above; conditions: Postemergence
How it was run: as §2

kochia (Bassia scoparia) [8] = assay: as above; conditions: Postemergence
How it was run: as §2

[9] = tested on: oat, wild (wild oat, Avena fatua); assay: as above; conditions: Postemergence
How it was run: as §2

soybean (Glycine max) [10] = assay: as above; conditions: Postemergence
How it was run: as §2

[11] = tested on: wheat (Triticum aestivum); assay: as above; conditions: Postemergence
How it was run: as §2

[12] = tested on: ragweed (common ragweed, Ambrosia artemisiifolia); assay: as above; conditions: Postemergence
How it was run: as §2

[13] = tested on: blackgrass (Alopecurus myosuroides); assay: as above; conditions: Postemergence
How it was run: as §2

[14] = tested on: palmer (palmer amaranth, palmer pigweed, Amaranthus palmeri); assay: as above; conditions: Postemergence
How it was run: as §2

[15] = tested on: horseweed (Erigeron canadensis); assay: as above; conditions: Postemergence
How it was run: as §2

[16] = tested on: ryegrass, Italian (italian ryegrass, Lolium multiflorum); assay: Test A preemergence soil spray, visual injury rating 0-100; conditions: 10 days, 0 = no effect, 100 = complete control; for Ryegrass, Italian plant response rating (0-100): 31 g ai/ha; for Ryegrass, Italian plant response rating (0 to 100 scale): 125 g ai/ha
How it was run: as §2

corn (Zea mays) [17] = assay: as above; conditions: 10 days, 0 = no effect, 100 = complete control; for Corn plant response rating (0-100): 31 g ai/ha; for Corn plant response rating (0 to 100 scale): 125 g ai/ha
How it was run: as §2

[18] = tested on: barnyardgrass (Echinochloa crus-galli); assay: as above; conditions: 10 days, 0 = no effect, 100 = complete control; for Barnyardgrass plant response rating (0-100): 31 g ai/ha; for Barnyardgrass plant response rating (0 to 100 scale): 125 g ai/ha
How it was run: as §2

kochia (Bassia scoparia) [19] = assay: as above; conditions: 10 days, 0 = no effect, 100 = complete control; for Kochia plant response rating (0-100): 31 g ai/ha; for Kochia plant response rating (0 to 100 scale): 125 g ai/ha
How it was run: as §2

[20] = tested on: oat, wild (wild oat, Avena fatua); assay: as above; conditions: 10 days, 0 = no effect, 100 = complete control; for Oat, Wild plant response rating (0-100): 31 g ai/ha; for Oat, Wild plant response rating (0 to 100 scale): 125 g ai/ha
How it was run: as §2

soybean (Glycine max) [21] = assay: as above; conditions: 10 days, 0 = no effect, 100 = complete control; for Soybean plant response rating (0-100): 31 g ai/ha; for Soybean plant response rating (0 to 100 scale): 125 g ai/ha
How it was run: as §2

[22] = tested on: wheat (Triticum aestivum); assay: as above; conditions: 10 days, 0 = no effect, 100 = complete control; for Wheat plant response rating (0-100): 31 g ai/ha; for Wheat plant response rating (0 to 100 scale): 125 g ai/ha
How it was run: as §2

[23] = tested on: ragweed (common ragweed, Ambrosia artemisiifolia); assay: as above; conditions: 10 days, 0 = no effect, 100 = complete control; for Ragweed plant response rating (0-100): 31 g ai/ha; for Ragweed plant response rating (0 to 100 scale): 125 g ai/ha
How it was run: as §2

[24] = tested on: blackgrass (Alopecurus myosuroides); assay: as above; conditions: 10 days, 0 = no effect, 100 = complete control; for Blackgrass plant response rating (0-100): 31 g ai/ha; for Blackgrass plant response rating (0 to 100 scale): 125 g ai/ha
How it was run: as §2

[25] = tested on: palmer (palmer amaranth, palmer pigweed, Amaranthus palmeri); assay: as above; conditions: 10 days, 0 = no effect, 100 = complete control; for Amaranth, Palmer plant response rating (0-100): 31 g ai/ha; for Amaranth, Palmer plant response rating (0 to 100 scale): 125 g ai/ha
How it was run: as §2

[26] = 31 g ai/ha, greenhouse 10 days, 0 no effect, 100 complete control
[27] = 125 g ai/ha, 10 days, 0 is no effect, 100 is complete control

CC1(C(=O)NC2C=CC(C(=O)ON=Cc3ccccc3)C2)CN(c2cc(F)cc(F)c2)C(=O)O1 (stereo not drawn) [Compound 68]
Plant response rating, Barnyardgrass (0 to 100 scale, 0 is no effect and 100 is complete control) [1]: 85
Plant response rating, Ducksalad (0 to 100 scale, 0 is no effect and 100 is complete control) [2]: 95
Plant response rating, Sedge, Umbrella (0 to 100 scale, 0 is no effect and 100 is complete control) [3]: 98
Plant response rating, Rice (0 to 100 scale, 0 is no effect and 100 is complete control) (rice (Oryza sativa)): 40
Ryegrass, Italian plant response rating (0 to 100 scale) [4, 26]: 90
Ryegrass, Italian plant response rating (0 to 100 scale) [4, 27]: 100
Corn plant response rating (0 to 100 scale) (corn (Zea mays) [5]; [26]): 80
Corn plant response rating (0 to 100 scale) (corn (Zea mays) [5]; [27]): 100
Barnyardgrass plant response rating (0 to 100 scale) [6, 26]: 90
Barnyardgrass plant response rating (0 to 100 scale) [6, 27]: 90
Galium plant response rating (0 to 100 scale) [7, 26]: 90
Galium plant response rating (0 to 100 scale) [7, 27]: 90
Kochia plant response rating (0 to 100 scale) (kochia (Bassia scoparia) [8]; [26]): 80
Kochia plant response rating (0 to 100 scale) (kochia (Bassia scoparia) [8]; [27]): 90
Oat, Wild plant response rating (0 to 100 scale) [9, 26]: 30
Oat, Wild plant response rating (0 to 100 scale) [9, 27]: 90
Soybean plant response rating (0 to 100 scale) (soybean (Glycine max) [10]; [26]): 90
Soybean plant response rating (0 to 100 scale) (soybean (Glycine max) [10]; [27]): 100
Wheat plant response rating (0 to 100 scale) [11, 26]: 80
Wheat plant response rating (0 to 100 scale) [11, 27]: 90
Ragweed plant response rating (0 to 100 scale) [12, 26]: 0
Ragweed plant response rating (0 to 100 scale) [12, 27]: 80
Blackgrass plant response rating (0 to 100 scale) [13, 26]: 70
Blackgrass plant response rating (0 to 100 scale) [13, 27]: 90
Amaranth, Palmer / Pigweed, Palmer plant response rating (0 to 100 scale) [14, 26]: 90
Amaranth, Palmer / Pigweed, Palmer plant response rating (0 to 100 scale) [14, 27]: 90
Horseweed plant response rating (0 to 100 scale) [15, 26]: 50
Horseweed plant response rating (0 to 100 scale) [15, 27]: 90
Ryegrass, Italian plant response rating (0-100) [16]: 70
Ryegrass, Italian plant response rating (0 to 100 scale) [16]: 80
Corn plant response rating (0-100) (corn (Zea mays) [17]): 0
Corn plant response rating (0 to 100 scale) (corn (Zea mays) [17]): 80
Barnyardgrass plant response rating (0-100) [18]: 90
Barnyardgrass plant response rating (0 to 100 scale) [18]: 100
Kochia plant response rating (0-100) (kochia (Bassia scoparia) [19]): 80
Kochia plant response rating (0 to 100 scale) (kochia (Bassia scoparia) [19]): 90
Oat, Wild plant response rating (0-100) [20]: 60
Oat, Wild plant response rating (0 to 100 scale) [20]: 90
Soybean plant response rating (0-100) (soybean (Glycine max) [21]): 0
Soybean plant response rating (0 to 100 scale) (soybean (Glycine max) [21]): 70
Wheat plant response rating (0-100) [22]: 80
Wheat plant response rating (0 to 100 scale) [22]: 90
Ragweed plant response rating (0-100) [23]: 0
Ragweed plant response rating (0 to 100 scale) [23]: 20
Blackgrass plant response rating (0-100) [24]: 50
Blackgrass plant response rating (0 to 100 scale) [24]: 70
Amaranth, Palmer plant response rating (0-100) [25]: 100
Amaranth, Palmer plant response rating (0 to 100 scale) [25]: 100

CSCCOC(=O)C1C=CC(NC(=O)C2(C)CN(c3cc(Cl)cc(Cl)c3)C(=O)O2)C1 (stereo not drawn) [Compound 69]
Plant response rating, Barnyardgrass (0 to 100 scale, 0 is no effect and 100 is complete control) [1]: 85
Plant response rating, Ducksalad (0 to 100 scale, 0 is no effect and 100 is complete control) [2]: 60
Plant response rating, Sedge, Umbrella (0 to 100 scale, 0 is no effect and 100 is complete control) [3]: 95
Plant response rating, Rice (0 to 100 scale, 0 is no effect and 100 is complete control) (rice (Oryza sativa)): 50
Ryegrass, Italian plant response rating (0 to 100 scale) [4, 26]: 70
Ryegrass, Italian plant response rating (0 to 100 scale) [4, 27]: 70
Corn plant response rating (0 to 100 scale) (corn (Zea mays) [5]; [26]): 100
Corn plant response rating (0 to 100 scale) (corn (Zea mays) [5]; [27]): 100
Barnyardgrass plant response rating (0 to 100 scale) [6, 26]: 90
Barnyardgrass plant response rating (0 to 100 scale) [6, 27]: 90
Galium plant response rating (0 to 100 scale) [7, 26]: 80
Galium plant response rating (0 to 100 scale) [7, 27]: 80
Kochia plant response rating (0 to 100 scale) (kochia (Bassia scoparia) [8]; [26]): 80
Kochia plant response rating (0 to 100 scale) (kochia (Bassia scoparia) [8]; [27]): 80
Oat, Wild plant response rating (0 to 100 scale) [9, 26]: 90
Oat, Wild plant response rating (0 to 100 scale) [9, 27]: 90
Soybean plant response rating (0 to 100 scale) (soybean (Glycine max) [10]; [26]): 60
Soybean plant response rating (0 to 100 scale) (soybean (Glycine max) [10]; [27]): 90
Wheat plant response rating (0 to 100 scale) [11, 26]: 90
Wheat plant response rating (0 to 100 scale) [11, 27]: 90
Ragweed plant response rating (0 to 100 scale) [12, 26]: 50
Ragweed plant response rating (0 to 100 scale) [12, 27]: 70
Blackgrass plant response rating (0 to 100 scale) [13, 26]: 90
Blackgrass plant response rating (0 to 100 scale) [13, 27]: 90
Amaranth, Palmer / Pigweed, Palmer plant response rating (0 to 100 scale) [14, 26]: 90
Amaranth, Palmer / Pigweed, Palmer plant response rating (0 to 100 scale) [14, 27]: 90
Horseweed plant response rating (0 to 100 scale) [15, 26]: 70
Horseweed plant response rating (0 to 100 scale) [15, 27]: 80
Ryegrass, Italian plant response rating (0-100) [16]: 30
Ryegrass, Italian plant response rating (0 to 100 scale) [16]: 80
Corn plant response rating (0-100) (corn (Zea mays) [17]): 0
Corn plant response rating (0 to 100 scale) (corn (Zea mays) [17]): 60
Barnyardgrass plant response rating (0-100) [18]: 60
Barnyardgrass plant response rating (0 to 100 scale) [18]: 90
Kochia plant response rating (0-100) (kochia (Bassia scoparia) [19]): 40
Kochia plant response rating (0 to 100 scale) (kochia (Bassia scoparia) [19]): 90
Oat, Wild plant response rating (0-100) [20]: 0
Oat, Wild plant response rating (0 to 100 scale) [20]: 60
Soybean plant response rating (0-100) (soybean (Glycine max) [21]): 20
Soybean plant response rating (0 to 100 scale) (soybean (Glycine max) [21]): 50
Wheat plant response rating (0-100) [22]: 30
Wheat plant response rating (0 to 100 scale) [22]: 70
Ragweed plant response rating (0-100) [23]: 0
Ragweed plant response rating (0 to 100 scale) [23]: 20
Blackgrass plant response rating (0-100) [24]: 40
Blackgrass plant response rating (0 to 100 scale) [24]: 60
Amaranth, Palmer plant response rating (0-100) [25]: 90
Amaranth, Palmer plant response rating (0 to 100 scale) [25]: 90
